The text below walks through data of patent US5561161A, “Methods of administering and pharmaceutical formulations containing n-substituted benzamides and/or acid addition salts thereof” (priority 1994, dated 1996).

“Also recorded” adds a separate entry of the source. Counter-ions that a name gives are not always drawn. Like-named read-outs stand apart in the source and are kept apart here.

The test system of data set [1] is human lung adenocarcinoma (H-2981). The data set can be described thus: Radiosensitization of human lung adenocarcinoma xenografts in Scid mice. Conditions: 2 mg/kg i.m., -1 or -2 hours to 1 Gy; hydrochloride. A general note: A xenograft is tissue or cells of one species grown in another, often human tumour cells in immunodeficient mice.
Description: Tumor tissue suspensions were prepared and inoculated subcutaneously into the midback region of 3-5 week old Scid mice so that 10 mm×10 mm tumors were grown in about 25 days. […] The tumor volumes were measured and recorded every 2-3 days and analyzed by a t-test at day 17 after inoculation.
For data set [2] the following is noted: cited from earlier work.
Another data set relates to dopamine2 (D2) receptor. Particulars: cited from earlier work.
A further data set concerns human cancer patients. Conditions: intravenous, cisplatin chemotherapy; cited from earlier work.
Data set [3] deals with 5-hydroxytryptamine3 (5-HT3) receptor. Conditions: cited from earlier work.

In the case of `CCN(CC)CCNC(=O)c1cc(Cl)c(N)cc1OC` [metoclopramide hydrochloride], in data set [1], the “radiosensitization, effect of pH (acidic vs neutral form)” value is on record as “not altered; also recorded: Lack of any measurable difference”. Further, the “solubility in water / aqueous vehicles” value in data set [2] (hydrochloride) is on record as “freely soluble in water”.

For `CCN(CC)CCNC(=O)c1cc(Cl)c(N)cc1OC` [metoclopramide], in data set [2], the “solubility in water / aqueous vehicles” value is recorded as “quite insoluble in water”. In the data set on dopamine2 (D2) receptor, the “binding to D2 receptor” value was “known to bind” and the “sodium ion dependence of D2 receptor binding” value is “sodium ion dependent”. In addition, the inhibition of emesis result with human cancer patients was “can inhibit the biological response of emesis”. The “binding to 5-HT3 receptor” value in data set [3] is “known to bind”.
